Reference: the NIST ThermoML archive (doi:10.1021/je049652j)
Numbers after ± are expanded uncertainties.

Assay: molar heat capacity at constant pressure
Conditions: 101.33 kPa, Liquid

For CCCCCCCl [1-chlorohexane], the “molar heat capacity at constant pressure” value (284.15 K) was 212.36 ± 1.1 J/K/mol, the “molar heat capacity at constant pressure” value (286.65 K) was 213.23 ± 1.1 J/K/mol and the “molar heat capacity at constant pressure” value (289.15 K) was 213.91 ± 1.1 J/K/mol. For the same compound, the “molar heat capacity at constant pressure” value (291.65 K) was 214.63 ± 1.1 J/K/mol, the “molar heat capacity at constant pressure” value (294.15 K) was 215.4 ± 1.1 J/K/mol and the “molar heat capacity at constant pressure” value (296.65 K) was 216.12 ± 1.1 J/K/mol. The “molar heat capacity at constant pressure” value (299.15 K) was 216.95 ± 1.1 J/K/mol, the “molar heat capacity at constant pressure” value (301.65 K) was 217.75 ± 1.1 J/K/mol and the “molar heat capacity at constant pressure” value (304.15 K) was 218.44 ± 1.1 J/K/mol. The “molar heat capacity at constant pressure” value (306.65 K) was 219.22 ± 1.1 J/K/mol, the “molar heat capacity at constant pressure” value (309.15 K) was 219.99 ± 1.1 J/K/mol and the “molar heat capacity at constant pressure” value (311.65 K) was 221 ± 1.1 J/K/mol. The “molar heat capacity at constant pressure” value (314.15 K) was 221.78 ± 1.1 J/K/mol, the “molar heat capacity at constant pressure” value (316.65 K) was 222.49 ± 1.1 J/K/mol and the “molar heat capacity at constant pressure” value (319.15 K) was 223.43 ± 1.1 J/K/mol. The “molar heat capacity at constant pressure” value (321.65 K) was 224.31 ± 1.1 J/K/mol, the “molar heat capacity at constant pressure” value (324.15 K) was 224.7 ± 1.1 J/K/mol and the “molar heat capacity at constant pressure” value (326.65 K) was 226.02 ± 1.1 J/K/mol. For the same compound, the “molar heat capacity at constant pressure” value (329.15 K) was 227.13 ± 1.1 J/K/mol, the “molar heat capacity at constant pressure” value (331.65 K) was 228.86 ± 1.1 J/K/mol and the “molar heat capacity at constant pressure” value (334.15 K) was 228.99 ± 1.1 J/K/mol. For the same compound, the “molar heat capacity at constant pressure” value (336.65 K) was 229.44 ± 1.1 J/K/mol, the “molar heat capacity at constant pressure” value (339.15 K) was 230.06 ± 1.1 J/K/mol and the “molar heat capacity at constant pressure” value (341.65 K) was 231.22 ± 1.2 J/K/mol. The “molar heat capacity at constant pressure” value (344.15 K) was 231.83 ± 1.2 J/K/mol, the “molar heat capacity at constant pressure” value (346.65 K) was 232.32 ± 1.2 J/K/mol and the “molar heat capacity at constant pressure” value (349.15 K) was 233.18 ± 1.2 J/K/mol. The “molar heat capacity at constant pressure” value (351.65 K) was 234.56 ± 1.2 J/K/mol and the “molar heat capacity at constant pressure” value (353.15 K) was 235.17 ± 1.2 J/K/mol.

With CCCCCCCCCl [1-chlorooctane] the “molar heat capacity at constant pressure” value (284.15 K) was 269.76 ± 1.4 J/K/mol, the “molar heat capacity at constant pressure” value (286.65 K) was 270.79 ± 1.4 J/K/mol and the “molar heat capacity at constant pressure” value (289.15 K) was 271.83 ± 1.4 J/K/mol. The “molar heat capacity at constant pressure” value (291.65 K) was 272.66 ± 1.4 J/K/mol, the “molar heat capacity at constant pressure” value (294.15 K) was 273.66 ± 1.4 J/K/mol and the “molar heat capacity at constant pressure” value (296.65 K) was 274.53 ± 1.4 J/K/mol. For the same compound, the “molar heat capacity at constant pressure” value (299.15 K) was 275.61 ± 1.4 J/K/mol, the “molar heat capacity at constant pressure” value (301.65 K) was 276.52 ± 1.4 J/K/mol and the “molar heat capacity at constant pressure” value (304.15 K) was 277.29 ± 1.4 J/K/mol. For the same compound, the “molar heat capacity at constant pressure” value (306.65 K) was 278.37 ± 1.4 J/K/mol, the “molar heat capacity at constant pressure” value (309.15 K) was 279.28 ± 1.4 J/K/mol and the “molar heat capacity at constant pressure” value (311.65 K) was 280.5 ± 1.4 J/K/mol. The “molar heat capacity at constant pressure” value (314.15 K) was 281.58 ± 1.4 J/K/mol, the “molar heat capacity at constant pressure” value (316.65 K) was 282.47 ± 1.4 J/K/mol and the “molar heat capacity at constant pressure” value (319.15 K) was 283.79 ± 1.4 J/K/mol. The “molar heat capacity at constant pressure” value (321.65 K) was 284.92 ± 1.4 J/K/mol, the “molar heat capacity at constant pressure” value (324.15 K) was 285.45 ± 1.4 J/K/mol and the “molar heat capacity at constant pressure” value (326.65 K) was 286.81 ± 1.4 J/K/mol. The “molar heat capacity at constant pressure” value (329.15 K) was 288.43 ± 1.4 J/K/mol, the “molar heat capacity at constant pressure” value (331.65 K) was 289.95 ± 1.4 J/K/mol and the “molar heat capacity at constant pressure” value (334.15 K) was 290.13 ± 1.4 J/K/mol. The “molar heat capacity at constant pressure” value (336.65 K) was 291.34 ± 1.5 J/K/mol, the “molar heat capacity at constant pressure” value (339.15 K) was 291.91 ± 1.5 J/K/mol and the “molar heat capacity at constant pressure” value (341.65 K) was 293.56 ± 1.5 J/K/mol. For the same compound, the “molar heat capacity at constant pressure” value (344.15 K) was 294.16 ± 1.5 J/K/mol, the “molar heat capacity at constant pressure” value (346.65 K) was 294.82 ± 1.5 J/K/mol and the “molar heat capacity at constant pressure” value (349.15 K) was 295.79 ± 1.5 J/K/mol. For the same compound, the “molar heat capacity at constant pressure” value (351.65 K) was 297.21 ± 1.5 J/K/mol and the “molar heat capacity at constant pressure” value (353.15 K) was 298.14 ± 1.5 J/K/mol.

In the case of CCCCCCl [1-chloropentane], the “molar heat capacity at constant pressure” value (284.15 K) is reported as 184.57 ± 0.92 J/K/mol, the “molar heat capacity at constant pressure” value (286.65 K) is reported as 185.29 ± 0.93 J/K/mol and the “molar heat capacity at constant pressure” value (289.15 K) is reported as 185.95 ± 0.93 J/K/mol. The “molar heat capacity at constant pressure” value (291.65 K) was 186.52 ± 0.93 J/K/mol, the “molar heat capacity at constant pressure” value (294.15 K) was 187.16 ± 0.94 J/K/mol and the “molar heat capacity at constant pressure” value (296.65 K) was 187.66 ± 0.94 J/K/mol. The “molar heat capacity at constant pressure” value (299.15 K) was 188.46 ± 0.94 J/K/mol, the “molar heat capacity at constant pressure” value (301.65 K) was 189.19 ± 0.95 J/K/mol and the “molar heat capacity at constant pressure” value (304.15 K) was 189.81 ± 0.95 J/K/mol. The “molar heat capacity at constant pressure” value (306.65 K) was 190.32 ± 0.95 J/K/mol, the “molar heat capacity at constant pressure” value (309.15 K) was 190.99 ± 0.95 J/K/mol and the “molar heat capacity at constant pressure” value (311.65 K) was 191.89 ± 0.96 J/K/mol. For the same compound, the “molar heat capacity at constant pressure” value (314.15 K) was 192.65 ± 0.96 J/K/mol, the “molar heat capacity at constant pressure” value (316.65 K) was 193.22 ± 0.97 J/K/mol and the “molar heat capacity at constant pressure” value (319.15 K) was 194.09 ± 0.97 J/K/mol. The “molar heat capacity at constant pressure” value (321.65 K) was 194.69 ± 0.97 J/K/mol, the “molar heat capacity at constant pressure” value (324.15 K) was 195.06 ± 0.98 J/K/mol and the “molar heat capacity at constant pressure” value (326.65 K) was 196.14 ± 0.98 J/K/mol. For the same compound, the “molar heat capacity at constant pressure” value (329.15 K) was 196.99 ± 0.98 J/K/mol, the “molar heat capacity at constant pressure” value (331.65 K) was 197.64 ± 0.99 J/K/mol and the “molar heat capacity at constant pressure” value (334.15 K) was 198.46 ± 0.99 J/K/mol. The “molar heat capacity at constant pressure” value (336.65 K) was 199.23 ± 1 J/K/mol, the “molar heat capacity at constant pressure” value (339.15 K) was 199.92 ± 1 J/K/mol and the “molar heat capacity at constant pressure” value (341.65 K) was 200.41 ± 1 J/K/mol. The “molar heat capacity at constant pressure” value (344.15 K) was 201.19 ± 1 J/K/mol, the “molar heat capacity at constant pressure” value (346.65 K) was 201.73 ± 1 J/K/mol and the “molar heat capacity at constant pressure” value (349.15 K) was 202.54 ± 1 J/K/mol. The “molar heat capacity at constant pressure” value (351.65 K) was 203.57 ± 1 J/K/mol and the “molar heat capacity at constant pressure” value (353.15 K) was 204.24 ± 1 J/K/mol.

In the case of CCCCl [1-chloropropane], the “molar heat capacity at constant pressure” value (284.15 K) is reported as 128.63 ± 0.64 J/K/mol, the “molar heat capacity at constant pressure” value (286.65 K) is reported as 128.99 ± 0.64 J/K/mol and the “molar heat capacity at constant pressure” value (289.15 K) is reported as 129.53 ± 0.65 J/K/mol. The “molar heat capacity at constant pressure” value (291.65 K) was 130.1 ± 0.65 J/K/mol, the “molar heat capacity at constant pressure” value (294.15 K) was 130.47 ± 0.65 J/K/mol and the “molar heat capacity at constant pressure” value (296.65 K) was 130.95 ± 0.65 J/K/mol. For the same compound, the “molar heat capacity at constant pressure” value (299.15 K) was 131.33 ± 0.66 J/K/mol, the “molar heat capacity at constant pressure” value (301.65 K) was 131.88 ± 0.66 J/K/mol and the “molar heat capacity at constant pressure” value (304.15 K) was 132.37 ± 0.66 J/K/mol. For the same compound, the “molar heat capacity at constant pressure” value (306.65 K) was 132.94 ± 0.66 J/K/mol, the “molar heat capacity at constant pressure” value (309.15 K) was 133.4 ± 0.67 J/K/mol and the “molar heat capacity at constant pressure” value (311.65 K) was 133.92 ± 0.67 J/K/mol. For the same compound, the “molar heat capacity at constant pressure” value (314.15 K) was 134.38 ± 0.67 J/K/mol.

In the case of CCBr [bromoethane], the “molar heat capacity at constant pressure” value (269.15 K) is reported as 104.07 ± 0.52 J/K/mol, the “molar heat capacity at constant pressure” value (271.65 K) is reported as 104.37 ± 0.52 J/K/mol and the “molar heat capacity at constant pressure” value (274.15 K) is reported as 104.6 ± 0.52 J/K/mol. The “molar heat capacity at constant pressure” value (276.65 K) was 104.85 ± 0.52 J/K/mol, the “molar heat capacity at constant pressure” value (279.15 K) was 105.14 ± 0.53 J/K/mol and the “molar heat capacity at constant pressure” value (281.65 K) was 105.42 ± 0.53 J/K/mol. The “molar heat capacity at constant pressure” value (284.15 K) was 105.63 ± 0.53 J/K/mol, the “molar heat capacity at constant pressure” value (286.65 K) was 105.91 ± 0.53 J/K/mol and the “molar heat capacity at constant pressure” value (289.15 K) was 106.14 ± 0.53 J/K/mol. The “molar heat capacity at constant pressure” value (291.65 K) was 106.42 ± 0.53 J/K/mol, the “molar heat capacity at constant pressure” value (294.15 K) was 106.75 ± 0.53 J/K/mol and the “molar heat capacity at constant pressure” value (296.65 K) was 107.09 ± 0.54 J/K/mol. For the same compound, the “molar heat capacity at constant pressure” value (299.15 K) was 107.42 ± 0.54 J/K/mol.
